Results on one compound are retold here after patent US7625713B2, “Process for identifying a ligand that binds to the NEP binding site for the SMR1 pentapeptide” (Institut Pasteur, priority 2000, dated 2009).

Entries after “also recorded” stand apart in the source; their conditions may differ. Where a SMILES comes first, the peptide text is derived from it.

For this assay, the target named is T1, NEP (Rattus norvegicus, UniProt P07861).
T1 construct: incubations of membrane and fresh tissue slice preparations from nervous tissues; from tissue; host or cells: dorsal spinal cord of male Wistar rats (fresh slices or 100 000 x g membrane fraction)
T1 sequence (P07861 1-750): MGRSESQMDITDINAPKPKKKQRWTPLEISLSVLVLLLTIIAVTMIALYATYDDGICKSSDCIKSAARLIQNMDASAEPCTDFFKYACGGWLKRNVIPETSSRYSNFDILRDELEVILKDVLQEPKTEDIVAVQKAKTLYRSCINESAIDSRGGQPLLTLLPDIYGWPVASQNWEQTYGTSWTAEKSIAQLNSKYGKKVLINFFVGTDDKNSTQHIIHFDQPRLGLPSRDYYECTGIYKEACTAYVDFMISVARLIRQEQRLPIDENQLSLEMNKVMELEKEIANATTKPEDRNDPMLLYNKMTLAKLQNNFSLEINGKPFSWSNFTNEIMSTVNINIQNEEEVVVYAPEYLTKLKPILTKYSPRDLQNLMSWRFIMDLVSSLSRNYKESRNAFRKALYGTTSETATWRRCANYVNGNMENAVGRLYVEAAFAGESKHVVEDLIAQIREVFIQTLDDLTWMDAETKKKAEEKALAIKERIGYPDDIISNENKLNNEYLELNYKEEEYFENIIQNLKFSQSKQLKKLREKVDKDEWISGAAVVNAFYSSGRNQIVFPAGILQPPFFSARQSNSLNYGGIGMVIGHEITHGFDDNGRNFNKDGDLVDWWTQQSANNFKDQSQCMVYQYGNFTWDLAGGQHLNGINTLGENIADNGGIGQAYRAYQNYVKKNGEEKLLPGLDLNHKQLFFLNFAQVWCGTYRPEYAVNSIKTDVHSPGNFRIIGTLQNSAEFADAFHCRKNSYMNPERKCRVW
Description: 3H-Substance P hydrolysis by rat spinal cord membrane preparations. It is filed as biochemical. As to the method: FIG. 1-A: Influence of spinal cord membrane protein concentration on Substance P hydrolysis (25 nM) in the presence or absence of the synthetic NEP inhibitor, Phosphoramidon, 10 μM. Each point represents the percent of 3H-substance P hydrolyzed by spinal cord membrane incubated 15 min. at 30° C. in a 250 μl final volume of Tris/HCl buffer. […] Each point represents the percent of 3H-substance P hydrolyzed by 250 μg membrane proteins incubated at 25° C. in a 250 μl final volume of Tris/HCl buffer. FIG. 3-B: Concentration-dependent inhibition by […] NO: 2) of 3H-Substance P (12.5 nM) catabolism by rat spinal cord membrane preparations. Comparison with-a NEP inhibitor, Phosphoramidon and, -CPB and DPPIV inhibitors, […] inhibitor. Comparison between the inhibitory activity exerted by […] NO: 2) peptide alone or in combination with CPB and DPPIV inhibitors. […] The metabolism rate of the NEP-sensitive peptides was measured using the both NEP substrates involved in the signaling of the nociceptive response: the neuropeptides Met-enkephalin and Substance P. […] The temperature and the time of the incubation as well as the concentration of substrate and of membrane enzyme are defined according to the results such as the NEP hydrolysis activity will be measured under conditions of initial velocity. […] The radioactivity of eluted and isolated compounds is determined by liquid scintillation spectrometry.

With `N=C(N)NCCC[C@H](NC(=O)[C@@H]1CCCN1C(=O)[C@H](CC(N)=O)NC(=O)[C@H](Cc1c[nH]cn1)NC(=O)[C@@H](N)CCC(N)=O)C(=O)O` [sialorphin, Gln-His-Asn-Pro-Arg] (H-QHNPR-OH; N-terminus and C-terminus assumed), the “inhibitory potency / protection of Substance P compared with reference NEP inhibitors” value (peptide alone, listed as SMR1-QHNPR) was “equivalent t0 that obtained with Phosphoramidon; also recorded: equivalent to that of two well-known NEP-specific inhibitors, Thiorphan and Phosphoramidon”. The “NEP inhibiting activity compared with phosphoramidon” value (peptide combined with the inhibitors of CPB and DPPIV) is recorded as “greater than that of phosphoramidon”.
